Measured values taken from ChEMBL document CHEMBL3526058, “Investigating the enteroenteric recirculation of apixaban, a factor Xa inhibitor: administration of activated charcoal to bile duct-cannulated rats and dogs receiving an intravenous dose and use of drug transporter knockout rats” (Drug Metab Dispos, 2013).

Assays:
[1] = Mean residence time in beagle dog at 5 mg/kg, po followed by activated charcoal administration 0.25 hrs post compound dosing; type: ADME, organism-based, Canis lupus familiaris; parameters: dose 5 mg/kg, route oral; conditions: in vivo
[2] = Cmax in wild-type Sprague-Dawley rat at 4 mg/kg, po; type: ADME, organism-based; parameters: dose 4 mg/kg, route oral; conditions: in vivo
[3] = Apparent oral clearance in beagle dog at 5 mg/kg, po followed by activated charcoal administration 0.25 hrs post compound dosing; type: ADME, organism-based, Canis lupus familiaris; parameters: dose 5 mg/kg, route oral; conditions: in vivo
[4] = Cmax in BCRP-knockout Sprague-Dawley rat at 4 mg/kg, po; type: ADME, organism-based; parameters: dose 4 mg/kg, route oral; conditions: in vivo
[5] = Oral steady-state volume of distribution in beagle dog at 5 mg/kg; type: ADME, organism-based, Canis lupus familiaris; parameters: dose 5 mg/kg; conditions: in vivo, read-out: Vss/F
[6] = Cmax in beagle dog at 5 mg/kg, po followed by activated charcoal administration 0.25 hrs post compound dosing; type: ADME, organism-based, Canis lupus familiaris; parameters: dose 5 mg/kg, route oral; conditions: in vivo
[7] = Apparent oral clearance in beagle dog at 5 mg/kg, po followed by activated charcoal administration 1 hr post compound dosing; type: ADME, organism-based, Canis lupus familiaris; parameters: dose 5 mg/kg, route oral; conditions: in vivo
[8] = Apparent oral clearance in beagle dog at 5 mg/kg, po followed by activated charcoal administration 3 hrs post compound dosing; type: ADME, organism-based, Canis lupus familiaris; parameters: dose 5 mg/kg, route oral; conditions: in vivo
[9] = Oral bioavailability in Sprague-Dawley rat at 4 mg/kg administered 1 hr post GF-120918 treatment; type: ADME, organism-based; conditions: in vivo, with GF-120918
[10] = Half life in beagle dog at 5 mg/kg, po followed by activated charcoal administration 1 hr post compound dosing; type: ADME, organism-based, Canis lupus familiaris; parameters: dose 5 mg/kg, route oral; conditions: in vivo
[11] = Apparent oral clearance in P-gp-knockout Sprague-Dawley rat at 4 mg/kg, po; type: ADME, organism-based; parameters: dose 4 mg/kg, route oral; conditions: in vivo
[12] = Oral steady-state volume of distribution in P-gp-knockout Sprague-Dawley rat at 4 mg/kg; type: ADME, organism-based; parameters: dose 4 mg/kg; conditions: in vivo, read-out: Vss/F
[13] = Mean residence time in beagle dog at 5 mg/kg, po followed by activated charcoal administration 3 hrs post compound dosing; type: ADME, organism-based, Canis lupus familiaris; parameters: dose 5 mg/kg, route oral; conditions: in vivo
[14] = organism: Canis familiaris; test: Plasma clearance in dog relative to hepatic blood flow; type: ADME, organism-based, Canis lupus familiaris; conditions: in vivo
[15] = Half life in BCRP-knockout Sprague-Dawley rat at 4 mg/kg, po; type: ADME, organism-based; parameters: dose 4 mg/kg, route oral; conditions: in vivo
[16] = Half life in P-gp-knockout Sprague-Dawley rat at 4 mg/kg, po; type: ADME, organism-based; parameters: dose 4 mg/kg, route oral; conditions: in vivo
[17] = Oral bioavailability in beagle dog at 5 mg/kg followed by activated charcoal administration 0.25 hrs post compound dosing; type: ADME, organism-based, Canis lupus familiaris; conditions: in vivo
[18] = Apparent oral clearance in beagle dog at 5 mg/kg, po; type: ADME, organism-based, Canis lupus familiaris; parameters: dose 5 mg/kg, route oral; conditions: in vivo
[19] = Half life in Sprague-Dawley rat at 4 mg/kg, po administered 1 hr post GF-120918 treatment; type: ADME, organism-based; parameters: dose 4 mg/kg, route oral; conditions: in vivo, with GF-120918
[20] = Apparent oral clearance in wild-type Sprague-Dawley rat at 4 mg/kg, po; type: ADME, organism-based; parameters: dose 4 mg/kg, route oral; conditions: in vivo
[21] = Oral steady-state volume of distribution in beagle dog at 5 mg/kg followed by activated charcoal administration 0.25 hrs post compound dosing; type: ADME, organism-based, Canis lupus familiaris; parameters: dose 5 mg/kg; conditions: in vivo, read-out: Vss/F
[22] = Cmax in beagle dog at 5 mg/kg, po; type: ADME, organism-based, Canis lupus familiaris; parameters: dose 5 mg/kg, route oral; conditions: in vivo
[23] = Oral steady-state volume of distribution in wild-type Sprague-Dawley rat at 4 mg/kg; type: ADME, organism-based; parameters: dose 4 mg/kg; conditions: in vivo, read-out: Vss/F
[24] = AUC (0 to infinity) in Sprague-Dawley rat at 4 mg/kg, po administered 1 hr post GF-120918 treatment; type: ADME, organism-based; parameters: time infinity, dose 4 mg/kg, route oral; conditions: plasma, with GF-120918
[25] = Half life in wild-type Sprague-Dawley rat at 4 mg/kg, po; type: ADME, organism-based; parameters: dose 4 mg/kg, route oral; conditions: in vivo
[26] = AUC (0 to 24 hrs) in beagle dog at 5 mg/kg, po followed by activated charcoal administration 1 hr post compound dosing; type: ADME, organism-based, Canis lupus familiaris; parameters: time < 24 hr, dose 5 mg/kg, route oral; conditions: plasma
[27] = Plasma concentration in beagle dog at 5 mg/kg, po followed by activated charcoal administration 1 hr post compound dosing measured at 8 hrs; type: ADME, organism-based, Canis lupus familiaris; parameters: dose 5 mg/kg, route oral
[28] = Plasma concentration in beagle dog at 5 mg/kg, po followed by activated charcoal administration 3 hrs post compound dosing measured at 8 hrs; type: ADME, organism-based, Canis lupus familiaris; parameters: dose 5 mg/kg, route oral
[29] = Half life in beagle dog at 5 mg/kg, po followed by activated charcoal administration 3 hrs post compound dosing; type: ADME, organism-based, Canis lupus familiaris; parameters: dose 5 mg/kg, route oral; conditions: in vivo
[30] = Cmax in beagle dog at 5 mg/kg, po followed by activated charcoal administration 1 hr post compound dosing; type: ADME, organism-based, Canis lupus familiaris; parameters: dose 5 mg/kg, route oral; conditions: in vivo
[31] = Mean residence time in Sprague-Dawley rat at 4 mg/kg, po administered 1 hr post GF-120918 treatment; type: ADME, organism-based; parameters: dose 4 mg/kg, route oral; conditions: in vivo, with GF-120918
[32] = Half life in beagle dog at 5 mg/kg, po; type: ADME, organism-based, Canis lupus familiaris; parameters: dose 5 mg/kg, route oral; conditions: in vivo
[33] = AUC (0 to infinity) in P-gp-knockout Sprague-Dawley rat at 4 mg/kg, po; type: ADME, organism-based; parameters: time infinity, dose 4 mg/kg, route oral; conditions: plasma

In the case of `COc1ccc(-n2nc(C(N)=O)c3c2C(=O)N(c2ccc(N4CCCCC4=O)cc2)CC3)cc1`, the MRT [1] is reported as 6.4 h, the Cmax [2] is reported as 420 ng/mL and the CL/F [3] is reported as 1.37 mL/min/kg. For the same compound, the Cmax [4] was 1920 ng/mL, the Vd/F [5] was 0.5 L/kg and the Cmax [6] was 8420 ng/mL. It also gave a CL/F [7] of 1.28 mL/min/kg, a CL/F [8] of 1.68 mL/min/kg and a bioavailability [9] of 140%. The half-life [10] was 4 h, the CL/F [11] was 10 mL/min/kg and the Vd/F [12] was 2.4 L/kg. The MRT [13] was 5.3 h, the CL [14] was under 5% and the half-life [15] was 2.5 h. It also gave a half-life [16] of 3.8 h, a bioavailability [17] of 92% and a CL/F [18] of 1 mL/min/kg. It also gave a half-life [19] of 1.6 h, a CL/F [20] of 25 mL/min/kg and a Vd/F [21] of 0.5 L/kg. The Cmax [22] was 9350 ng/mL, the Vd/F [23] was 5.8 L/kg and the AUC(0-inf) [24] was 6570 ng·h/mL. It also gave a half-life [25] of 3.3 h, an AUC(0-t) at 24 h [26] of 63900 ng·h/mL and a concentration at 8 h [27] of 3380 ng/mL. The concentration at 8 h [28] was 2190 ng/mL, the half-life [29] was 3 h and the Cmax [30] was 8990 ng/mL. For the same compound, the MRT [31] was 2.1 h, the half-life [32] was 5.7 h and the AUC(0-inf) [33] was 3340 ng·h/mL.
